Measured values taken from patent US8546147B2, “Imidazo[1,2-α]pyrazin-3(7H)-one derivatives bearing a new electron-rich structure” (Universita degli Studi di Siena, priority 2009, dated 2013).
Like-named read-outs stand apart in the source and are kept apart here.

Assays:
RLuc = molecular target: T1, RLuc (Renilla reniformis, UniProt P27652); settings: cited from earlier work
T1 sequence (P27652 1-311): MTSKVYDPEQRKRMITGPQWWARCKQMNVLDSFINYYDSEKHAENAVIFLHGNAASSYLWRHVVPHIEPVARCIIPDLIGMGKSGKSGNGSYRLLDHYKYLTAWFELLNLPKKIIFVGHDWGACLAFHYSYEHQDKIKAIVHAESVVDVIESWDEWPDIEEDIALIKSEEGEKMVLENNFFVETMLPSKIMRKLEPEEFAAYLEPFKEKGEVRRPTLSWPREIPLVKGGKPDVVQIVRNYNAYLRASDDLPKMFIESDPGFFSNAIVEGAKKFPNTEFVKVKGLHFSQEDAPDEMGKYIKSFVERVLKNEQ

[1] = cited from earlier work
[2] = cited from earlier work; remark: listed apart in the source
[3] = Chemiluminescence spectrum in DMSO (Shimadzu RF5001PC); assay type: physicochemical; settings: for max. emission peak of chemiluminescent spectrum: 1-3 μg/mL in DMSO
Description: Chemiluminescence Spectrums.
Consequently, 10 μL of the stock solution were directly diluted in the quartz cuvette reader of the Fluorescence Spectrophotometer Shimadzu RF5001PC, containing 3 mL of DMSO, to obtain a final sample concentration of 1-3 μg/mL.

[4] = molecular target: T2, Renilla Luciferase (RLuC) (Renilla reniformis, UniProt P27652)
T2 sequence (P27652 1-311): T1 sequence (P27652 1-311)
Description: Bioluminescence Spectrum.
Bioluminescence was measured according to standard procedures.^40

[5] = molecular target: T3, RLuC (donor) and Green Fluorescent Protein GFP (acceptor) (Renilla reniformis, UniProt P27652); settings: three different times, FIG. 8-10
T3 sequence (P27652 1-311): T1 sequence (P27652 1-311)

[6] = first line of values, native = 1.00
[7] = second line of values (line with half-rise time in ms)

Row | Compound | Half-rise Time ([1]; first line of values) [s] | Relative Intensity [1, 6] | Relative Luminescence capacity [1, 6] | Relative Intensity [1, 7] | Relative Luminescence capacity [1, 7] | Half-rise Time ([1]; second line of values) [s] | further results
1 | O=c1c(Cc2ccccc2)nc2c(Cc3ccccc3)[nH]c(-c3ccccc3)cn1-2 [Coelenterazine 400a] | – | – | – | – | – | – | Rluc emission peak (RLuc): 395 nm
2 | O=c1c(Cc2ccc(O)cc2)nc2c(CC3CCCC3)[nH]c(-c3ccc(O)cc3)cn1-2 [Coelenterazine cp] | 0.15 to 0.3 | 20 | 0.95 | 28 | 0.63 | 0.005 | –
3 | Oc1ccc(Cc2nc3c(Cc4ccccc4)nc4c(n3c2O)CCc2cc(O)ccc2-4)cc1 [Coelenterazine e] | 0.15 to 0.3 | 4 | 0.5 | – | – | – | –
4 | O=c1c(Cc2ccc(F)cc2)nc2c(Cc3ccccc3)[nH]c(-c3ccc(O)cc3)cn1-2 [Coelenterazine f] | 0.4 to 0.8 | 18 | 0.80 | 20 | 0.80 | 0.006 to 0.03 | –
5 | O=c1c(Cc2ccc(F)cc2)nc2c(CC3CCCC3)[nH]c(-c3ccc(O)cc3)cn1-2 [Coelenterazine fcp] | 0.4 to 0.8 | 135 | 0.57 | – | – | – | –
6 | Oc1ccc(-c2cn3c(O)c(Cc4ccccc4)nc3c(Cc3ccccc3)n2)cc1 [Coelenterazine h] | 0.4 to 0.80 | 10 | 0.82 | 16 | 0.75 | 0.006 to 0.03 | –
7 | O=c1c(Cc2ccc(I)cc2)nc2c(Cc3ccccc3)[nH]c(-c3ccc(O)cc3)cn1-2 [Coelenterazine i] | 8 | 0.03 | 0.70 | – | – | – | –
8 | O=c1c(Cc2ccc(O)cc2)nc2c(Cc3ccccc3)[nH]c(-c3ccc(O)cc3)cn1-2 [Compound 1, coelenterazine] | 0.4 to 0.8 | 1.00 | 1.00 | – | – | 0.006 to 0.03 | ΦCl ([2]; chemiluminescence quantum yield): 0.21%; Relative Light Yield ([2]; in brackets, relative to compound 1 (1.0)): 1.0
9 | O=c1c(Cc2ccccc2)nc2c(Cc3ccccc3)[nH]c(-c3ccccc3)cn1-2 [Compound 23b, 2,8-Dibenzyl-6-phenylimidazo-[1,2-a]pyrazin-3(7H)-one] | – | – | – | – | – | – | max. emission peak of chemiluminescent spectrum [3]: 465 nm
10 | O=c1c(Cc2ccccc2)nc2c(Cc3ccccc3)[nH]c(-c3ccc4c(c3)OCO4)cn1-2 [Compound 23e, 2,8-Dibenzyl-6-[3,4-(methylendioxy)-phenyl]imidazo-[1,2-a]pirazin-3(7H)-one] | – | – | – | – | – | – | Shifts vs.23b ([4]; 1st measurement): 10.2 nm; Bioluminescent emission max ([4]; 1st measurement of triplicate): 397.6 nm; Shifts vs.23b ([4]; 2nd measurement): 5.5 nm; Bioluminescent emission max ([4]; 2nd measurement of triplicate): 397.5 nm; Shifts vs.23b ([4]; 3d measurement): 5.2 nm; Bioluminescent emission max ([4]; 3d measurement of triplicate): 398.2 nm; emission over time in BRET experiment (in words) [5]: decrease over time
11 | O=c1c(Cc2ccccc2)nc2c(Sc3ccccc3)[nH]c(-c3ccccc3)cn1-2 [Compound 23f, 2-Benzyl-6-phenyl-8-(phenylthio)imidazo-[1,2-a]pirazin-3(7H)-one] | – | – | – | – | – | – | bioluminescent emission [4]: about 415 nm; shift in respect of compound 23b [4]: about 30 nm; Shifts vs.23b ([4]; 1st measurement): 27.7 nm; Bioluminescent emission max ([4]; 1st measurement of triplicate): 415.1 nm; Shifts vs.23b ([4]; 2nd measurement): 27.4 nm; Bioluminescent emission max ([4]; 2nd measurement of triplicate): 419.4 nm; Shifts vs.23b ([4]; 3d measurement): 31.4 nm; Bioluminescent emission max ([4]; 3d measurement of triplicate): 424.3 nm; emission over time in BRET experiment (in words) [5]: long lasting; kinetic of chemiluminescence (in words) [3]: slower than 23b; max. emission peak of chemiluminescent spectrum [3]: 510 nm; emission shift between chemiluminescent spectrums ([3]; 23f versus 23b): about 45 nm; chemiluminescence intensity (in words) ([3]; compared with 23b): relative lowest intensity
12 | O=c1c(Cc2ccccc2)nc2c(Sc3ccc(Cl)cc3)[nH]c(-c3ccc(O)cc3)cn1-2 [Compound 23i, 2-Benzyl-8-(4-chlorophenylthio)-6-(4-hydroxyphenyl)imidazo[1,2-a]pyrazin-3(7H)-one] | – | – | – | – | – | – | Biolum. Imax [4]: 510 nm; Chemil. Imax [3]: 505 nm
13 | O=c1c(Cc2ccccc2)nc2c(Sc3ccc(Cl)cc3)[nH]c(-c3ccccc3)cn1-2 [Compound 23n, 2-Benzyl-8-(4-chlorophenylthio)-6-phenylimidazo[1,2-a]pyrazin-3(7H)-one] | – | – | – | – | – | – | Chemil. Imax [3]: 505 nm
14 | Coelenterazine hcp | 0.15 to 0.3 | 190 | 0.67 | 500 | 0.65 | 0.002 to 0.005 | –
15 | Coelenterazine ip | 1 | 47 | 0.54 | – | – | – | –
16 | Coelenterazine n | 5 | 0.01 | 0.26 | 0.15 | 0.25 | 0.006 to 0.03 | –
